Earlier results, collected in patent US10716771B2, “Pharmaceutical composition for preventing or treating immune diseases or inflammatory diseases, containing biguanide derivative compound as active ingredient” (THE CATHOLIC UNIVERSITY OF KOREA INDUSTRY-ACADEMIC …, priority 2013, dated 2020).

Test system: TNF-α
Conditions: stated as known; cited from earlier work

CN(C)C(=N)N=C(N)N [Metformin]
effect of blocking TNF-α: slight effect
